As usually defined, the IC50 is the concentration that gives 50% inhibition.

This passage reports IC50 results from patent US11964974B1, “Imidazo[1,2-c]pyrido[3,4-e]pyrimidine-3-carboxylic acids as CK2 inhibitors” (KING FAISAL UNIVERSITY, priority 2024, dated 2024).

Test [1] has as its system HCT116 (colon). In words: In vitro cytotoxic activity assay (MTT), HCT116. It counts as cell-based. The settings on record: Homo sapiens, HCT-116; HCT116 (colon) cells, exposed for 96 hours; read-out: Cytotoxicity activity IC50. The method, then: (§1) Compounds 1-16 were screened for their in vitro cytotoxic activity utilizing a 3-(4,5-dimethyl-thiazol-2-yl)-2,5-diphenyltetrazolium bromide (MTT) assay against selected cancer human cell lines consisting of PC3 (prostate), HCT116 (colon), A375 (melanoma), H1299 (lung), MIAPaCa-2 (pancreas), HL60 (leukemia), MCF7 (breast), MDA-MB-231 (breast) (T. Mosmann, J. Immunol. Meth., 1983, 65, 55-63). The cells were cultured at 37° C. in RMPI1640 medium supplemented with 10% fetal bovine serum, 50 IU/mL penicillin, and 50 μg/mL streptomycin in a 5% CO2 incubator. All cells were sub-cultured 3 times/week by trypsinisation. Viable cells were seeded and allowed to adhere for 12 hours before a test drug was added in 96-well plates at an initial density of 1.0×10^5 cells/mL. Tumor cell lines were separately exposed to various concentrations of the tested compounds followed by incubation at a temperature of 37° C. during 96 hours inside a medium of fresh RMPI 1640. Cells were subsequently incubated at 37° C. using MTT at 0.5 mg/mL during 4 hours. After removal of supernatant, formazan crystals were dissolved in isopropanol and the optical density was measured at 570 nm. CX-4945 was used as a positive control.

For test [2], the system named is MCF7 (breast). In words: In vitro cytotoxic activity assay (MTT), MCF7. It counts as cell-based. The conditions noted are these: Homo sapiens; MCF7 (breast) cells, exposed for 96 hours; read-out: Cytotoxicity activity IC50. The procedure:
as §1

Test [3] relates to A375 (melanoma). The experiment in a line: In vitro cytotoxic activity assay (MTT), A375. It counts as cell-based. The settings on record: Homo sapiens, A-375; A375 (melanoma) cells, exposed for 96 hours; read-out: Cytotoxicity activity IC50. The procedure: as §1
Test [4] concerns the target T1, recombinant human CK2 (RRββ-holoenzyme) (Homo sapiens, UniProt P68400).
T1 construct: purchased Millipore
The experiment in a line: CK2 Kinase Assay (radiometric, [γ-33P]ATP). It counts as biochemical. The settings on record: final ATP concentration 15 μM, 10 min at 30° C.; read-out: protein kinase CK2 inhibition IC50. The procedure:
CK2 Kinase Assay was conducted using the protocol as described in Pierre F. et al; J. Med. Chem. 2011, 54, 635-654. The tested compounds in aqueous solution were added at a volume of 10 μL to a reaction mixture comprising 10 μL of assay dilution buffer (ADB; 20 mM MOPS, pH 7.2, 25 mM β-glycerol phosphate, 5 mM EGTA, 1 mM sodium orthovanadate, and 1 mM dithiothreitol), 10 μL of substrate peptide (RRRDDDSDDD, dissolved in ADB at a concentration of 1 mM), 10 μL of recombinant human CK2 (RRββ-holoenzyme, 25 ng dissolved in ADB; Millipore). Reactions were initiated by the addition of 10 μL of ATP solution (90% 75 mMMgCl2, 75 μM ATP (final ATP concentration: 15 μM) dissolved in ADB; 10% [γ-33P] ATP (stock 1 mCi/100 μL; 3000 Ci/mmol (Perkin-Elmer) and maintained for 10 min at 30° C. The reactions were quenched with 100 μL of 0.75% phosphoric acid and then transferred to and filtered through a phosphor cellulose filter plate (Millipore). After washing each well five times with 0.75% phosphoric acid, the plate was dried under vacuum for 5 min and, following the addition of 15 μL of scintillation fluid to each well, the residual radioactivity was measured using a Wallac luminescence counter. The IC50 values were derived from eight concentrations of test inhibitors.

Test [5] concerns H1299 (lung). In words: In vitro cytotoxic activity assay (MTT), H1299. The class given is cell-based. The settings on record: Homo sapiens, NCI-H1299; H1299 (lung) cells, exposed for 96 hours; read-out: Cytotoxicity activity IC50. The method, then: as §1
The subject of test [6] is HL60 (leukemia). In words: In vitro cytotoxic activity assay (MTT), HL60. It counts as cell-based. The settings on record: Homo sapiens, HL-60; HL60 (leukemia) cells, exposed for 96 hours; read-out: Cytotoxicity activity IC50. The procedure: as §1
In test [7] the test system is PC3 (prostate). In words: In vitro cytotoxic activity assay (MTT), PC3. The class given is cell-based. The settings on record: Homo sapiens, Prostate cell; PC3 (prostate) cells, exposed for 96 hours; read-out: Cytotoxicity activity IC50. The method, then:
as §1

Test [8] concerns MDA-MB-231 (breast). In words: In vitro cytotoxic activity assay (MTT), MDA-MB-231. It counts as cell-based. The settings on record: Homo sapiens; MDA-MB-231 (breast) cells, exposed for 96 hours; read-out: Cytotoxicity activity IC50. The procedure: as §1
Test [9] relates to MIAPaCa-2 (pancreas). In words: In vitro cytotoxic activity assay (MTT), MIAPaCa-2. It counts as cell-based. The settings on record: Homo sapiens, MIA PaCa-2; MIAPaCa-2 (pancreas) cells, exposed for 96 hours; read-out: Cytotoxicity activity IC50. The method, then:
as §1

T1 sequence (P68400 whole entry): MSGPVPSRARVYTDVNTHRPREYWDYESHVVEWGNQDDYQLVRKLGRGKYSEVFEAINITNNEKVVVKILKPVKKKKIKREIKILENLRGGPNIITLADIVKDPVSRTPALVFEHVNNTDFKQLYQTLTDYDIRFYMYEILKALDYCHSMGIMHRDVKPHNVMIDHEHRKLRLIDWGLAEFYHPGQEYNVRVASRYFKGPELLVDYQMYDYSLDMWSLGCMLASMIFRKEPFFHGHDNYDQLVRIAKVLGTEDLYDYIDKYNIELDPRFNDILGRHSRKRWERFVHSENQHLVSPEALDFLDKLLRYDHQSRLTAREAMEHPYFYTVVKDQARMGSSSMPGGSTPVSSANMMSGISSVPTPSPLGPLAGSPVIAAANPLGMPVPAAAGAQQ
T1 sequence (P67870 whole entry partner): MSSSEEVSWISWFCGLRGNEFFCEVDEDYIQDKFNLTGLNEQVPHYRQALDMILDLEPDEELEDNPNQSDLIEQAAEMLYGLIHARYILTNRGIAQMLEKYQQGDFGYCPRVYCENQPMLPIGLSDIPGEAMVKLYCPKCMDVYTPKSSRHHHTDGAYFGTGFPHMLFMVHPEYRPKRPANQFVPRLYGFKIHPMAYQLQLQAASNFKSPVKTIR

Take `O=C(O)c1cnc2c3cnccc3nc(Nc3cccc(Cl)c3)n12` [Compound 1, 5-((3-chlorophenyl)amino)imidazo[1,2-c]pyrido[3,4-e]pyrimidine-3-carboxylic acid]: the IC50 was determined as 3.2 µM in test [1]; 5.3 µM in test [2]; 5.6 µM in test [3]; 0.035 µM in test [4]; 2.9 µM in test [5]; 6.7 µM in [6]. The IC50 turned out to be 1.8 µM in [7], 4.9 µM in [8] and 1.6 µM in [9].
